The target in experiment [1] is T1, D2 dopamine receptors (Rattus norvegicus, UniProt P61169).
T1 construct: Striatal samples from the brains of male Charles River CD rats; from tissue; host or cells: striatum of male Charles River CD rats (washed membrane pellet)
As to the kind of experiment: D2 dopamine receptor binding: inhibition of tritiated (S)-sulpiride binding, rat striatal samples. Also on record: species or system rat (male Charles River CD rats). The following applies: for Ki: rat striatum, tritiated (S)-sulpiride; for Ki for D2 / Ki for D1: ratio to two significant figures. On the procedure:
(§1) Striatal samples from the brains of male Charles River CD rats weighing between 140-250 g were homogenised in ice-cold 50 mM Tris-HCl buffer (pH 7.4 when measured at 25° C. for D1 binding assays and pH 7.7 when measured at 25° C. for D2 binding assays) and centrifuged for 10 minutes (at 21,000 g when used for D1binding assay and 40,000 g when used for D2binding assays). The pellet was resuspended in the same buffer, again centrifuged and the final pellet stored at -80° C. Before each test the pellet was resuspended in 50 mM Tris-HCl buffer containing 120 mM NaCl, 5 mM KCl, 2 mM CaCl2 and 1 mM MgCl2 at pH 7.4 for the D1 binding assays and at pH 7.7 with the addition of 6 mM ascorbic acid for the D2 binding assays. Aliquots of this suspension were then added to tubes containing the ligand and either the compound under test or buffer. For the D1 binding assays the ligand was tritiated SCH 23390 and the mixture was incubated at 37° C. for 30 minutes before the incubation was terminated by rapid filtration. For the D2 binding assays the ligand was tritiated (S)-sulpiride and the mixture was incubated at 4° C. for 40 minutes before the incubation was terminated by rapid filtration. Non-specific binding was determined experimentally by the addition of saturating concentrations of chloropromazine or spiroperidol for D1 and D2 receptors respectively.
(§2) The filters were washed with ice-cold Tris-HCl buffer and dried. The filters were punched out on to vials containing scintillation fluid and were left for about 20 hours before being counted by scintillation spectrophotometry. Displacement curves were produced over a range of concentrations of the compound under test and the concentration which gave a 50% inhibition of specific binding (IC50) obtained from the curve. The inhibition coefficient Ki was then calculated using the formula [formula] in which [ligand] is the concentration of the tritiated ligand used and KD is the equilibrium dissociation constant for the ligand.
(§3) In some cases Ki values for D2 binding were estimated from single concentration data by the application of the Langmuir adsorption isotherm equation. These cases are indicated by an "E" in the last two columns of Table I. In other cases it was not possible to determine or estimate the Ki and the Ki value is given as greater than (>) that which would result from the application of the above formula to the highest concentration which displaced ≤50% of the ligand.

The target in experiment [2] is T2, D1 dopamine receptors (Rattus norvegicus, UniProt P18901).
T2 construct: Striatal samples from the brains of male Charles River CD rats; from tissue; host or cells: striatum of male Charles River CD rats (washed membrane pellet)
The experiment in a line: D1 dopamine receptor binding: inhibition of tritiated SCH 23390 binding, rat striatal samples. The following applies: rat striatum, tritiated SCH 23390, pH 7.4, 37° C., 30 minutes. Also on record: species or system rat (male Charles River CD rats). The procedure: as §1, §2, §3

The mark [3] stands for this setting: pH 7.7, 4° C., 40 minutes, > = from highest concentration which displaced ≤50% of the ligand, read-out: Ki for D2 binding.
Where [4] appears, read: estimated from single concentration data by Langmuir adsorption isotherm equation, read-out: Ki for D2 binding (marked E).

Read-outs that look alike come from different tables or passages of the source. A value given as a limit tells only on which side of the number the result lay.

This is an account of results in patent US5519034A, “Tetraisoquinoline compounds which have useful pharmaceutical utility” (The Boots Company PLC, priority 1991, dated 1996).

The Ki is the dissociation constant of the complex between target and ligand, obtained from inhibition or displacement.

T2 sequence (P18901 whole entry): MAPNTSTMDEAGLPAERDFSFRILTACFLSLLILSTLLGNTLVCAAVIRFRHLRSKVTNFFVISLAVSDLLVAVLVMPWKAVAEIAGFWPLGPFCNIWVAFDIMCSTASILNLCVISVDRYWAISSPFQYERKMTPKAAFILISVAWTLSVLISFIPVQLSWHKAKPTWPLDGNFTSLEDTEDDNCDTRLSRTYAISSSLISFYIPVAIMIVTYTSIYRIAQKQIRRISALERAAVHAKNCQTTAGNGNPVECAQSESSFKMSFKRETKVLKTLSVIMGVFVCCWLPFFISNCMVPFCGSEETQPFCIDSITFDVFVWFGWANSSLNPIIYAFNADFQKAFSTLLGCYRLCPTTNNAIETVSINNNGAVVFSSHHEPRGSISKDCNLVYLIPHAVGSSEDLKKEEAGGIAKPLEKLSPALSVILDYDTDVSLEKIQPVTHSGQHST
T1 sequence (P61169 whole entry): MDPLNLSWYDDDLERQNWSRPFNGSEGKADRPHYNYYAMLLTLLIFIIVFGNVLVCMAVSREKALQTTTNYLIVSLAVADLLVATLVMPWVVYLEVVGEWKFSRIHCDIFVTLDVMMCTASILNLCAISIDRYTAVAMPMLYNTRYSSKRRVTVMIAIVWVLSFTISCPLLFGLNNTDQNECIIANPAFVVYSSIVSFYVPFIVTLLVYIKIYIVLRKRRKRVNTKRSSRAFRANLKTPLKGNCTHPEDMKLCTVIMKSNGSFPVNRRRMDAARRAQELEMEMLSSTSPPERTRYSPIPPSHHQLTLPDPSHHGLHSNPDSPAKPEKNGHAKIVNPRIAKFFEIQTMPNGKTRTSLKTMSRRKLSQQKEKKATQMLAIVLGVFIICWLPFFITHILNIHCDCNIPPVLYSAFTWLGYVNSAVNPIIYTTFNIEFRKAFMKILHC

`CN1CCc2cc(O)c(O)cc2C1C1(c2ccc(Br)cc2)CCC1` (centres unmarked) [Example 17, 1-[1-(4-bromophenyl)cyclobutyl]-6,7-dihydroxy-2-methyl-1,2,3,4-tetrahydroisoquinoline]: the inhibition constant Ki came to 8.9 µM in experiment [1] (setting [3]) and 0.0039 µM in experiment [2]. In experiment [1], the “Ki for D2 / Ki for D1” value worked out at 2300.
The matching figures for `CN1CCc2cc(O)c(O)cc2C1C1(c2ccc(Cl)c(Cl)c2)CCC1` (centres unmarked) [Example 18, 1-[1-(3,4-dichlorophenyl)cyclobutyl]-6,7-dihydroxy-2-methyl-1,2,3,4-tetrahydroisoquinoline]: 4.4 µM, 0.083 µM and 53.
Consider `CN1CCc2cc(O)c(O)cc2C1C1(c2ccc(O)cc2)CCCC1` (centres unmarked) [Example 19, 6,7-dihydroxy-1-[1-(4-hydroxyphenyl)cyclopentyl]-2-methyl-1,2,3,4-tetrahydroisoquinoline], for which the Ki in experiment [1] (setting [4]) is 7 µM; in experiment [2], 0.19 µM.
Regarding `CN1CCc2cc(Br)c(O)cc2C1C1(c2ccccc2)CCC1` (centres unmarked) [Example 20, 6-bromo-7-hydroxy-2-methyl-1-(1-phenylcyclobutyl)-1,2,3,4-tetrahydrosoqunoline], the Ki in experiment [1] (setting [3]) is over 5 µM; in experiment [2], 0.031 µM. Also, the “Ki for D2 / Ki for D1” value in experiment [1] was over 160.
Turning to `CN1CCc2cc(O)c(O)cc2C1C1(c2ccccc2)CC(C)(C)C1` (centres unmarked) [Example 21, 6,7-dihydroxy-2-methyl-1-(3,3-dimethyl-1-phenylcyclobutyl)-1,2,3,4-tetrahydroisoquinoline], the Ki in experiment [1] (setting [3]) was over 5 µM; in experiment [2] it was 0.2 µM. Moreover, in experiment [1], the “Ki for D2 / Ki for D1” value is given as over 25.
The like results for `CN1CCc2cc(Cl)c(O)cc2C1C1(c2ccccc2Cl)CCC1` (centres unmarked) [Example 22, 6-chloro-1-[1-(2-chlorophenyl)cyclobutyl]-7-hydroxy-2-methyl-1,2,3,4-tetrahydroisoquinoline] were, in that order, 1.8 µM, 0.0023 µM and 780.
On to `CN1CCc2cc(O)c(O)cc2C1C1(c2ccccc2C(F)(F)F)CCC1` (centres unmarked) [Example 23, 6,7-dihydroxy-2-methyl-1-[1-(2-trifluoromethylphenyl)cyclobutyl]-1,2,3,4-tetrahydroisoquinoline], for which the Ki turned out to be 15 µM in experiment [1] (setting [3]) and 0.018 µM in experiment [2]. Also, the “Ki for D2 / Ki for D1” value in experiment [1] is recorded as 830.
The matching figures for `CN1CCc2cc(F)c(O)cc2C1C1(c2ccccc2Cl)CCC1` (centres unmarked) [Example 24, 1-[1-(2-chlorophenyl)cyclobutyl]-6-fluoro-7-hydroxy-2-methyl-1,2,3,4-tetrahydroisoquinoline]: 1.7 µM, 0.0019 µM and 890.
The matching figures for `CN1CCc2cc(F)c(O)cc2C1C1(c2ccccc2)CCC1` (centres unmarked) [Example 25, 6-fluoro-7-hydroxy-2-methyl-1-(1-phenylcyclobutyl)-1,2,3,4-tetrahydroisoquinoline]: 5400 µM, 0.019 µM and 280000.
In the case of `CN1CCc2c(O)cccc2C1C1(c2ccc(Cl)cc2)CCC1` (centres unmarked) [Example 26, 1-[1-(4-chlorophenyl)cyclobutyl]-5-hydroxy-2-methyl-1,2,3,4-tetrahydroisoquinoline], the inhibition constant (Ki) in experiment [1] (setting [4]) is 7 µM; in experiment [2], 0.56 µM.
In the case of `CN1CCc2cc(O)c(O)cc2C1C1(c2ccccc2)CC1` (centres unmarked) [Example 27, 6,7-dihydroxy-2-methyl-1-(1-phenylcyclopropyl)-1,2,3,4-tetrahydroisoquinoline], the Ki in experiment [1] (setting [3]) was 5.7 µM; in experiment [2], 0.19 µM. In experiment [1], the “Ki for D2 / Ki for D1” value is 30.
The matching figures for `CN1CCc2cc(Cl)c(O)cc2C1C1(c2ccccc2)CCC1` (centres unmarked) [Example 28, 6-chloro-7-hydroxy-2-methyl-1-(1-phenylcyclobutyl)-1,2,3,4-tetrahydroisoquinoline]: 3.6 µM, 0.011 µM and 330.
For the molecule `CN1CCc2cc(O)c(O)cc2C1C1(c2ccccc2)CCCCC1` (centres unmarked) [Example 29, 6,7-dihydroxy-2-methyl-1-(1-phenylcyclohexyl)-1,2,3,4-tetrahydroisoquinoline], the Ki in experiment [1] (setting [4]) was 7 µM; in experiment [2] it was 0.12 µM.
On to `CN1CCc2cc(Cl)c(O)cc2C1C1(c2ccccc2)CC(C)(C)C1` (centres unmarked) [Example 30, 6-chloro-7-hydroxy-2-methyl-1-(3,3-dimethyl-1-phenylcyclobutyl)-1,2,3,4-tetrahydroisoquinoline], for which the figures for the Ki in experiment [1] (setting [3]) and in experiment [2] were over 5 µM and 0.066 µM, respectively. In addition, in experiment [1], the “Ki for D2 / Ki for D1” value is over 76.
On to `CN1CCc2cc(O)c(Cl)cc2C1C1(c2ccccc2)CCC1` (centres unmarked) [Example 31, 7-chloro-6-hydroxy-2-methyl-1-(1-phenylcyclobutyl)-1,2,3,4-tetrahydroisoquinoline], for which the Ki was 11 µM in experiment [1] (setting [4]) and 0.54 µM in experiment [2].
As for `CN1CCc2c(cc(O)c(O)c2Cl)C1C1(c2ccccc2)CCC1` (centres unmarked) [Example 32, 5-chloro-6,7-dihydroxy-2-methyl-1-(1-phenylcyclobutyl)-1,2,3,4-tetrahydroisoquinoline], the figures for the Ki in experiment [1] (setting [3]) and in experiment [2] were over 5 µM and 0.14 µM, respectively. In experiment [1], the “Ki for D2 / Ki for D1” value was over 36.
For the molecule `CN1CCc2cc(O)c(O)cc2C1C1(c2cccc(Cl)c2)CCC1` (centres unmarked) [Example 33, 1-[1-(3-chlorophenyl)cyclobutyl]-6,7-dihydroxy-2-methyl-1,2,3,4-tetrahydroisoquinoline], the results for the Ki in experiment [1] (setting [3]) and in experiment [2] were 23 µM and 0.065 µM, respectively. Besides, the “Ki for D2 / Ki for D1” value in experiment [1] is 350.
The matching figures for `CN1CCc2cc(F)c(O)cc2C1C1(c2ccccc2Br)CCC1` (centres unmarked) [Example 34, 1-[1-(2-bromophenyl)cyclobutyl]-6-fluoro-7-hydroxy-2-methyl-1,2,3,4-tetrahydroisoquinoline]: 7.8 µM, 0.0018 µM and 4300.
Take `COc1cc2c(cc1O)C(C1(c3ccccc3Cl)CCC1)N(C)CC2` (centres unmarked) [Example 35, 1-[1-(2-chlorophenyl)cyclobutyl]-7-hydroxy-6-methoxy-2-methyl-1,2,3,4-tetrahydroisoquinoline]: the inhibition constant (Ki) turned out to be 240 µM in experiment [1] (setting [3]) and 0.0013 µM in experiment [2]. In addition, in experiment [1], the “Ki for D2 / Ki for D1” value worked out at 180000.
The matching figures for `COc1cc2c(cc1O)C(C1(c3ccccc3)CCCCC1)N(C)CC2` (centres unmarked) [Example 36, 7-hydroxy-6-methoxy-2-methyl-1-(1-phenylcyclohexyl)-1,2,3,4-tetrahydroisoquinoline]: 4.4 µM, 0.062 µM and 71.
Consider `COc1cc2c(cc1O)C(C1(c3ccc(Cl)cc3Cl)CCC1)N(C)CC2` (centres unmarked) [Example 37, 1-[1-(2,4-dichlorophenyl)cyclobutyl]-7-hydroxy-6-methoxy-2-methyl-1,2,3,4-tetrahydroisoquinoline], for which the Ki in experiment [1] (setting [3]) is 5.3 µM; in experiment [2], 0.0006 µM. For the same molecule, the “Ki for D2 / Ki for D1” value in experiment [1] was determined as 8800.
With `COc1cc2c(cc1O)C(C1(c3ccccc3OC)CCC1)N(C)CC2` (centres unmarked) [Example 38, 7-hydroxy-6-methoxy-1-[1-(2-methoxyphenyl)cyclobutyl]-2-methyl-1,2,3,4-tetrahydroisoquinoline], the Ki in experiment [1] (setting [3]) amounted to 3.4 µM; in experiment [2] it was 0.0041 µM. Moreover, the “Ki for D2 / Ki for D1” value in experiment [1] is given as 830.
The matching figures for `COc1cccc(C2(C3c4cc(O)c(OC)cc4CCN3C)CCC2)c1` (centres unmarked) [Example 39, 7-hydroxy-6-methoxy-1-[1-(3-methoxyphenyl)cyclobutyl]-2-methyl-1,2,3,4-tetrahydroisoquinoline]: 1.9 µM, 0.023 µM and 83.
Take `CN1CCc2cc(Cl)c(O)cc2C1C1(c2ccccc2Br)CCC1` (centres unmarked) [Example 40, 1-[1-(2-bromophenyl)cyclobutyl]-6-chloro-7-hydroxy-2-methyl-1,2,3,4-tetrahydroisoquinoline]: the Ki was 18 µM in experiment [1] (setting [3]) and 0.0004 µM in experiment [2]. For the same molecule, the “Ki for D2 / Ki for D1” value in experiment [1] was found to be 45000.
For the molecule `CN1CCc2ccc(O)cc2C1C1(c2ccccc2)CCC1` (centres unmarked) [Example 41, 7-hydroxy-2-methyl-1-(1-phenylcyclobutyl)-1,2,3,4-tetrahydroisoquinoline], the Ki was determined as 13 µM in experiment [1] (setting [3]) and 0.079 µM in experiment [2]. In addition, in experiment [1], the “Ki for D2 / Ki for D1” value was found to be 160.
